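Tested at 5 concentrations; 48 h exposure; 96-well plates; endpoints linearly interpolated, else capped at highest concentration. The concentration for 50% growth inhibition is given as GI50. At the TGI there is no net growth.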
Legend:
Assay in all cases: NCI tumour cell line growth inhibition, 48 h
786-0 renal = test system: 786-0 renal
A498 renal = test system: A498 renal
A549 NSCLC = test system: A549 NSCLC
ACHN renal = test system: ACHN renal
BT-549 breast = test system: BT-549 breast
CAKI-1 renal = test system: CAKI-1 renal
CCRF-CEM leukemia = test system: CCRF-CEM leukemia
COLO 205 colon = test system: COLO 205 colon
DU-145 prostate = test system: DU-145 prostate
EKVX NSCLC = test system: EKVX NSCLC
HCC-2998 colon = test system: HCC-2998 colon
HCT-116 colon = test system: HCT-116 colon
HCT-15 colon = test system: HCT-15 colon
HL-60(TB) leukemia = test system: HL-60(TB) leukemia
HOP-62 NSCLC = test system: HOP-62 NSCLC
HOP-92 NSCLC = test system: HOP-92 NSCLC
HS 578T breast = test system: HS 578T breast
HT29 colon = test system: HT29 colon
IGROV1 ovarian = test system: IGROV1 ovarian
K-562 leukemia = test system: K-562 leukemia
KM12 colon = test system: KM12 colon
LOX IMVI melanoma = test system: LOX IMVI melanoma
M14 melanoma = test system: M14 melanoma
MALME-3M melanoma = test system: MALME-3M melanoma
MCF7 breast = test system: MCF7 breast
MDA-MB-231 breast = test system: MDA-MB-231 breast
MDA-MB-435 = test system: MDA-MB-435
MOLT-4 leukemia = test system: MOLT-4 leukemia
NCI-H226 lung = test system: NCI-H226 lung
NCI-H23 lung = test system: NCI-H23 lung
NCI-H460 lung = test system: NCI-H460 lung
NCI/ADR-RES ovarian = test system: NCI/ADR-RES ovarian
OVCAR-3 ovarian = test system: OVCAR-3 ovarian
OVCAR-4 ovarian = test system: OVCAR-4 ovarian
OVCAR-5 ovarian = test system: OVCAR-5 ovarian
OVCAR-8 ovarian = test system: OVCAR-8 ovarian
PC-3 prostate = test system: PC-3 prostate
RPMI-8226 leukemia = test system: RPMI-8226 leukemia
RXF 393 renal = test system: RXF 393 renal
SF-268 CNS = test system: SF-268 CNS
SF-295 CNS = test system: SF-295 CNS
SF-539 CNS = test system: SF-539 CNS
SK-MEL-2 melanoma = test system: SK-MEL-2 melanoma
SK-MEL-28 melanoma = test system: SK-MEL-28 melanoma
SK-MEL-5 melanoma = test system: SK-MEL-5 melanoma
SK-OV-3 ovarian = test system: SK-OV-3 ovarian
SN12C renal = test system: SN12C renal
SNB-19 CNS = test system: SNB-19 CNS
SNB-75 CNS = test system: SNB-75 CNS
SR leukemia = test system: SR leukemia
SW-620 colon = test system: SW-620 colon
T-47D breast = test system: T-47D breast
TK-10 renal = test system: TK-10 renal
U251 CNS = test system: U251 CNS
UACC-257 melanoma = test system: UACC-257 melanoma
UACC-62 melanoma = test system: UACC-62 melanoma
UO-31 renal = test system: UO-31 renal

COc1ccc(-c2cc3c(OC)c(OC)c(OC)cc3oc2=O)cc1 gave a GI50 (786-0 renal) of 6.91 µM, a TGI (786-0 renal) of over 100 µM and a GI50 (A498 renal) of 1.7 µM. For the same compound, the TGI (A498 renal) was 6.98 µM, the GI50 (A549 NSCLC) was 4.62 µM and the TGI (A549 NSCLC) was over 100 µM. The GI50 (ACHN renal) was 7.47 µM, the TGI (ACHN renal) was over 100 µM and the GI50 (BT-549 breast) was 5.85 µM. The TGI (BT-549 breast) was 71.6 µM, the GI50 (CAKI-1 renal) was 4.59 µM and the TGI (CAKI-1 renal) was over 100 µM. For the same compound, the GI50 (CCRF-CEM leukemia) was 3.1 µM, the TGI (CCRF-CEM leukemia) was 45.9 µM and the GI50 (COLO 205 colon) was 3.66 µM. For the same compound, the TGI (COLO 205 colon) was 14.7 µM, the GI50 (DU-145 prostate) was 4.51 µM and the TGI (DU-145 prostate) was 59.9 µM. For the same compound, the GI50 (EKVX NSCLC) was 8.32 µM, the TGI (EKVX NSCLC) was over 100 µM and the GI50 (HCC-2998 colon) was 4.41 µM. For the same compound, the TGI (HCC-2998 colon) was over 100 µM, the GI50 (HCT-116 colon) was 3.97 µM and the TGI (HCT-116 colon) was 18.6 µM. It also gave a GI50 (HCT-15 colon) of 3.43 µM, a TGI (HCT-15 colon) of over 100 µM and a GI50 (HL-60(TB) leukemia) of 2.95 µM. The TGI (HL-60(TB) leukemia) was 12.8 µM, the GI50 (HOP-62 NSCLC) was 4.68 µM and the TGI (HOP-62 NSCLC) was over 100 µM. The GI50 (HOP-92 NSCLC) was 2.61 µM, the TGI (HOP-92 NSCLC) was 22.4 µM and the GI50 (HS 578T breast) was 2.59 µM. It also gave a TGI (HS 578T breast) of 7.96 µM, a GI50 (HT29 colon) of 3.42 µM and a TGI (HT29 colon) of 13.1 µM. For the same compound, the GI50 (IGROV1 ovarian) was 5.81 µM, the TGI (IGROV1 ovarian) was over 100 µM and the GI50 (K-562 leukemia) was 2.02 µM. The TGI (K-562 leukemia) was over 100 µM, the GI50 (KM12 colon) was 1.79 µM and the TGI (KM12 colon) was over 100 µM. The GI50 (LOX IMVI melanoma) was 5.32 µM, the TGI (LOX IMVI melanoma) was over 100 µM and the GI50 (M14 melanoma) was 3.31 µM. It also gave a TGI (M14 melanoma) of over 100 µM, a GI50 (MALME-3M melanoma) of 4.37 µM and a TGI (MALME-3M melanoma) of over 100 µM. It also gave a GI50 (MCF7 breast) of 3.69 µM, a TGI (MCF7 breast) of over 100 µM and a GI50 (MDA-MB-231 breast) of 4.91 µM. The TGI (MDA-MB-231 breast) was 62.5 µM, the GI50 (MDA-MB-435) was 0.444 µM and the TGI (MDA-MB-435) was 2.37 µM. For the same compound, the GI50 (MOLT-4 leukemia) was 3.92 µM, the TGI (MOLT-4 leukemia) was 22.2 µM and the GI50 (NCI-H226 lung) was 13.3 µM. For the same compound, the TGI (NCI-H226 lung) was 78.8 µM, the GI50 (NCI-H23 lung) was 3.49 µM and the TGI (NCI-H23 lung) was over 100 µM. For the same compound, the GI50 (NCI-H460 lung) was 3.48 µM, the TGI (NCI-H460 lung) was 17 µM and the GI50 (NCI/ADR-RES ovarian) was 2.02 µM. The TGI (NCI/ADR-RES ovarian) was 7.72 µM, the GI50 (OVCAR-3 ovarian) was 2.68 µM and the TGI (OVCAR-3 ovarian) was 6.45 µM. The GI50 (OVCAR-4 ovarian) was 7.6 µM, the TGI (OVCAR-4 ovarian) was over 100 µM and the GI50 (OVCAR-5 ovarian) was 17.8 µM. It also gave a TGI (OVCAR-5 ovarian) of over 100 µM, a GI50 (OVCAR-8 ovarian) of 5 µM and a TGI (OVCAR-8 ovarian) of over 100 µM. It also gave a GI50 (PC-3 prostate) of 7.42 µM, a TGI (PC-3 prostate) of over 100 µM and a GI50 (RPMI-8226 leukemia) of 2.32 µM. For the same compound, the TGI (RPMI-8226 leukemia) was 17 µM, the GI50 (RXF 393 renal) was 5.91 µM and the TGI (RXF 393 renal) was 63.5 µM. For the same compound, the GI50 (SF-268 CNS) was 4.95 µM, the TGI (SF-268 CNS) was 90.9 µM and the GI50 (SF-295 CNS) was 4.63 µM. For the same compound, the TGI (SF-295 CNS) was over 100 µM, the GI50 (SF-539 CNS) was 4.09 µM and the TGI (SF-539 CNS) was 22.9 µM. It also gave a GI50 (SK-MEL-2 melanoma) of 3.48 µM, a TGI (SK-MEL-2 melanoma) of over 100 µM and a GI50 (SK-MEL-28 melanoma) of 5.28 µM. The TGI (SK-MEL-28 melanoma) was over 100 µM, the GI50 (SK-MEL-5 melanoma) was 2.57 µM and the TGI (SK-MEL-5 melanoma) was 8.51 µM. For the same compound, the GI50 (SK-OV-3 ovarian) was 4.67 µM, the TGI (SK-OV-3 ovarian) was 82.2 µM and the GI50 (SN12C renal) was 5.04 µM. For the same compound, the TGI (SN12C renal) was over 100 µM, the GI50 (SNB-19 CNS) was 5.95 µM and the TGI (SNB-19 CNS) was over 100 µM. The GI50 (SNB-75 CNS) was 3.39 µM, the TGI (SNB-75 CNS) was 23 µM and the GI50 (SR leukemia) was 1.11 µM. For the same compound, the TGI (SR leukemia) was 12.7 µM, the GI50 (SW-620 colon) was 2.79 µM and the TGI (SW-620 colon) was over 100 µM. For the same compound, the GI50 (T-47D breast) was 5.02 µM, the TGI (T-47D breast) was 92.3 µM and the GI50 (TK-10 renal) was 5.11 µM. The TGI (TK-10 renal) was 65 µM, the GI50 (U251 CNS) was 4.27 µM and the TGI (U251 CNS) was over 100 µM. For the same compound, the GI50 (UACC-257 melanoma) was 5.47 µM, the TGI (UACC-257 melanoma) was over 100 µM and the GI50 (UACC-62 melanoma) was 3.95 µM. The TGI (UACC-62 melanoma) was over 100 µM, the GI50 (UO-31 renal) was 5.59 µM and the TGI (UO-31 renal) was 48.8 µM.

Reference: PubChem BioAssay (NCI)
